Experimental findings from US20100144755A1 (Glaxo Group Limited, priority 2006, published 2010) are described below.

The target in data set [1] is T1, Recombinant human p38α (Homo sapiens, UniProt Q16539).
T1 construct: His; made in house
Nature of the data set: Fluorescence anisotropy kinase binding assay (standard and low volume). The settings on record: for IC50: 12 nM p38α, 5 nM fluorescent ligand, 5.1 to 8.4 is stated collectively for the listed examples, read-out: pIC50, fluorescence anisotropy kinase binding assay (converted); for pIC50: no IC50 at a concentration of less than 16 uM, read-out: IC50, fluorescence anisotropy kinase binding assay. From the text: Fluorescence Anisotropy Kinase Binding Assay—Standard Volume
The concentration of kinase enzyme should preferably be ≧2×Kf. The concentration of fluorescent ligand required will depend on the instrumentation used, and the fluorescent and physicochemical properties. The concentration used must be lower than the concentration of kinase enzyme, and preferably less than half the kinase enzyme concentration.
The fluorescent ligand is the following compound:
which is derived from 5-[2-(4-aminomethylphenyl)-5-pyridin-4-yl-1H-imidazol-4-yl]-2-chlorophenol and rhodamine green.
Recombinant human p38α was expressed as a GST-tagged protein. To activate this protein, 3.5 μM unactivated p38α was incubated in 50 mM Tris-HCl pH 7.5, 0.1 mM EGTA, 0.1% 2-mercaptoethanol, 0.1 mM sodium vanadate, 10 mM MgAc, 0.1 mM ATP with 200 nM MBP-MKK6 DD at 30 degrees for 30 mins. Following activation p38α was re-purified and the activity assessed using a standard filter-binding assay.
Protocol: All components are dissolved in buffer of composition 62.5 mM HEPES, pH 7.5, 1.25 mM CHAPS, 1 mM DTT, 12.5 mM MgCl2 with final concentrations of 12 nM p38α and 5 nM fluorescent ligand. 30 μl of this reaction mixture is added to wells containing 1 μl of various concentrations of test compound (0.28 nM-16.6 μM final) or DMSO vehicle (3% final) in NUNC 384 well black microtitre plate and equilibrated for 30-60 mins at room temperature. Fluorescence anisotropy is read in Molecular Devices Acquest (excitation 485 nm/emission 535 nm).
Definitions: Ki=dissociation constant for inhibitor binding • Kf=dissociation constant for fluorescent ligand binding
Fluorescence Anisotropy Kinase Binding Low Volume Assay
The concentration of kinase enzyme should preferably be 2×Kf. The concentration of fluorescent ligand required will depend on the instrumentation used, and the fluorescent and physicochemical properties. The concentration used must be lower than the concentration of kinase enzyme, and preferably less than half the kinase enzyme concentration.
Protocol: All components are dissolved in buffer of composition 62.5 mM HEPES, pH 7.5, 1.25 mM CHAPS, 1 mM DTT, 12.5 mM MgCl2 with final concentrations of 12 nM p38α and 5 nM fluorescent ligand. 30 μl of this reaction mixture is added to wells containing 0.1 μl of various concentrations of test compound (0.02 nM-25 μM final) or DMSO vehicle (1.7% final) in Greiner low volume 384 well black microtitre plate and equilibrated for 30-60 mins at room temperature. Fluorescence anisotropy is read in Molecular Devices Acquest (excitation 485 nm/emission 535 nm).
It is noted that there are two assay formats shown above for the Fluorescence anisotropy kinase binding assay. The only difference between these two assays is the volume used and the plate type. […] The results described herein may have been performed in either assay format and are not differentiated as to which.
Background: Polarisation of emitted light reports the rotation of a fluorescent probe.

The subject of data set [2] is TNF-stimulated IL8 production by human neutrophils. Nature of the data set: TNF-stimulated IL-8 production from human neutrophils.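 Note: IL-8 in cell-free supernatant quantified by sandwich ELISA, inhibition calculated against a compound-free control.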 It is filed as cell-based. Conditions: Neutrophil, TNF 100 ng/ml, about 20 hrs, bounds reflect the top concentration screened, for 202(c) and 120 a range over multiple runs with ends given as 'greater than'.
Protocol: TNF-Stimulated IL-8 Production from Human Neutrophils
The effect of test compounds on TNF-stimulated IL8 production by human neutrophils is measured as follows. Neutrophils are prepared from blood obtained from consenting donors, using standard methods. Blood is collected in heparinized syringes and layered over histopaque (30 ml/20 ml). Following centrifugation, the red cell pellet is resuspended in PBS and purified over a dextran gradient. […] Cells are added (0.5-1 ml) to 48 well plates already containing compound at 1000× final concentration in neat DMSO or 10% DMSO in RPMI1640 with 10% FBS. TNF (final concentration 100 ng/ml) is used as the stimulus. Cells incubated for approximately 20 hrs at 37° C., 5% CO2. Levels of IL-8 in the cell free supernatant are determined by sandwich ELISA, and inhibition relative to a control with DMPO but no compound is calculated.
The subject of data set [3] is LPS-stimulated TNFalpha production in human whole blood. Put plainly: LPS-stimulated cytokine production in human whole blood. In kind it is cell-based. Conditions: LPS 50 ng/ml final, 4 hour incubation, read-out: IC50, LPS-stimulated TNF-alpha production in human whole blood.
Protocol: LPS-Stimulated Cytokine Production in Human Whole Blood
Assay: Test compound concentrations were prepared at 10× concentrations and LPS prepared at 1 ug/ml (final conc. of 50 ng/ml LPS) and added in 50 uL volumes to 1.5 mL eppendorf tubes. Heparinized human whole blood was obtained from healthy volunteers and was dispensed into eppendorf tubes or multiwell plates containing compounds and LPS in 0.2-0.4 mL volumes and the tubes incubated at 37 C. In some studies, compound was incubated with blood for up to 30 min prior to addition of LPS. Following a 4 hour incubation, the tubes or plates were centrifuged to remove cells and plasma was withdrawn and frozen at −80 C.
Cytokine measurement: IL-Ibeta and/or TNFalpha were quantified using a standardized ELISA, or similar technology.
Data set [4] deals with T1, Recombinant human p38α. Put plainly: Time-resolved fluorescence resonance energy transfer (TR-FRET) kinase assay (standard and low volume). The settings on record: for IC50: for 97(b) and 115 a broad range over multiple runs, lower end less than 4.6, read-out: pIC50, TR-FRET p38α kinase assay (converted). In kind it is biochemical. As to the method: Time-Resolved Fluorescence Resonance Energy Transfer Linase Standard Assay
Recombinant human p38α was expressed as a His-tagged protein. To activate this protein, 3 μM unactivated p38α was incubated in 200 mM Hepes pH 7.4, 625 mM NaCl, 1 mM DTT with 27 nM active MKK6 (Upstate), 1 mM ATP and 10 mM MgCl2 The activity of the MKK6-activated p38α was assessed using a time-resolved fluorescence resonance energy transfer (TR-FRET) assay.
Biotinylated-GST-ATF2 (residues 19-96, 400 nM final), ATP ([…]) and MgCl2 (5 mM final) in assay buffer (40 mM HEPES pH 7.4, 1 mM DTT) were added to wells containing 1 ul of various concentrations of compound or DMSO vehicle (3% final) in NUNC 384 well black plate. The reaction was initiated by the addition of MKK6-activated p38 (100 pM final) to give a total volume of 30 ul. The reaction was incubated for 120 minutes at room temperature, then terminated by the addition of 15 μl of 100 mM EDTA pH 7.4. Detection reagent (15 μl) in buffer (100 mM HEPES pH 7.4, 150 mM NaCl, 0.1% w/v BSA, 1 mM DTT) containing antiphosphothreonine-ATF2-71 polyclonal antibody (Cell Signalling Technology, Beverly Mass., USA) labelled with W-1024 europium chelate (Wallac O Y, Turku, Finland), and APC-labelled streptavidin (Prozyme, San Leandro, Calif., USA) was added and the reaction was further incubated for 60 minutes at room temperature. The degree of phosphorylation of GST-ATF2 was measured using a Packard Discovery plate reader (Perkin-Elmer Life Sciences, Pangbourne, UK) as a ratio of specific 665 nm energy transfer signal to reference europium 620 nm signal.
Time-Resolved Fluorescence Resonance Energy Transfer Kinase Low Volume Assay
Recombinant human p38α was expressed as a His-tagged protein. To activate this protein, 3 μM unactivated p38α was incubated in 200 mM Hepes pH7.4, 625 mM NaCl, 1 mM DTT with 27 nM active MKK6 (Upstate), 1 mM ATP and 10 mM MgCl2 The activity of the MKK6-activated p38α was assessed using a time-resolved fluorescence resonance energy transfer (TR-FRET) assay.
Biotinylated-GST-ATF2 (residues 19-96, 400 nM final), ATP (125 μM final) and MgCl2 (5 mM final) in assay buffer (40 mM HEPES pH 7.4, 1 mM DTT) were added to wells containing 0.1 μl of various concentrations of compound or DMSO vehicle (1.7% final) in Greiner low volume 384 well black plate. The reaction was initiated by the addition of MKK6-activated p38α (100 pM final) to give a total volume of 6 μl. […] The degree of phosphorylation of GST-ATF2 was measured using a BMG Rubystar plate reader (BMG, UK) as a ratio of specific 665 nm energy transfer signal to reference europium 620 nm signal.
It is noted that there are two assay formats shown above for the Time-resolved fluorescence resonance energy transfer kinase assay. […]

The subject of data set [5] is influx of neutrophils to the lung in LPS-challenged rats. Put plainly: Rat LPS neutrophilia model. In kind it is in vivo. Conditions: LPS aerosol, intratracheal dosing, in at least one of the range of conditions tested, significance p<0.05. In a few lines: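 Compound given intratracheally (200 ul suspension or dry powder via microsprayer) to isoflurane-anesthetized rats 15 min–24 h before 15 min LPS aerosol (100 ug/ml). Lavage 4 h post-challenge; neutrophils from differential counts. % inhibition versus no-compound controls at a given concentration and pretreat time.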

As a reminder, the pIC50 is the IC50 on a negative log10 scale, so that one unit is a factor of ten. By melting point is commonly meant the temperature, or range, at which the solid turns liquid.

pIC50: −log10 of the molar value. Where a name gives a salt, the structure may show the parent alone.

T1 sequence (Q16539 whole entry): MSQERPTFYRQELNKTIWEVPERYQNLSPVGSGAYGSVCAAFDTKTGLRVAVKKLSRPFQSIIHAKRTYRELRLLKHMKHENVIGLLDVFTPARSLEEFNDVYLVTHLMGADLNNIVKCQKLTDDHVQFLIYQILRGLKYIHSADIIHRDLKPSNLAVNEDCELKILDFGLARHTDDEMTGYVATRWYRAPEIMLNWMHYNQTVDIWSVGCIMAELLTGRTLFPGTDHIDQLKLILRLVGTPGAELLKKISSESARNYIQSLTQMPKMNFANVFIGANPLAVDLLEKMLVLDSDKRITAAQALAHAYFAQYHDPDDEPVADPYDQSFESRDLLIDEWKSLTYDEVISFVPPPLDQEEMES

With `CSc1nc(Cl)c2ccc(=O)n(-c3c(F)cccc3F)c2n1` [Example 1(a), 4-chloro-8-(2,6-difluorophenyl)-2-(methylthio)pyrido[2,3-d]pyrimidin-7(8H)-one], on Recombinant human p38α [1], the IC50 was above 15.8 µM. Moreover, the results for the negative-log IC50 (pIC50) (on Recombinant human p38α [1]; in data set [2]) were at most 4.80 and below 7.00, respectively.
Turning to `Cc1ccc(NC(=O)c2cccs2)cc1-c1nc(NC2CC(C)(C)NC(C)(C)C2)nc2c1ccc(=O)n2-c1c(F)cccc1F` [Example 9, N-(3-{8-(2,6-difluorophenyl)-7-oxo-2-[(2,2,6,6-tetramethyl-4-piperidinyl)amino]-7,8-dihydropyrido[2,3-d]pyrimidin-4-yl}-4-methylphenyl)-2-thiophenecarboxamide], the IC50 at Recombinant human p38α [1] is above 15.8 µM. The negative-log IC50 (pIC50) at Recombinant human p38α [1] was at most 4.80; in data set [2], below 7.00.
Turning to `Cc1ccc(C(=O)NCCc2ccccc2)cc1-c1nc(NC(CO)CO)nc2c1ccc(=O)n2-c1c(F)cccc1F` [Example 93, 3-(8-(2,6-difluorophenyl)-2-{[2-hydroxy-1-(hydroxymethyl)ethyl]amino}-7-oxo-7,8-dihydropyrido[2,3-d]pyrimidin-4-yl)-4-methyl-N-(2-phenylethyl)benzamide trifluoroacetate], the pIC50 in data set [3] is below 6.00.
`O=C(O)c1cccc(-c2nc(NC(CO)CO)nc3c2ccc(=O)n3-c2ccc(F)cc2F)c1` [Example 96(d), 3-(8-(2,4-difluorophenyl)-2-{[2-hydroxy-1-(hydroxymethyl)ethyl]amino}-7-oxo-7,8-dihydropyrido[2,3-d]pyrimidin-4-yl)benzoic acid]: on Recombinant human p38α [1], the IC50 was above 15.8 µM and the negative-log IC50 (pIC50) was at most 4.80.
For `Cc1ccc(C(=O)O)cc1-c1nc(-n2ccnc2CN)nc2c1ccc(=O)n2-c1c(F)cccc1F` [Example 97(b), 3-[2-[2-(aminomethyl)-1H-imidazol-1-yl]-8-(2,6-difluorophenyl)-7-oxo-7,8-dihydropyrido[2,3-d]pyrimidin-4-yl]-4-methylbenzoic acid trifluoroacetate], the pIC50 in data set [3] was below 6.00. In addition, the IC50 on Recombinant human p38α [4] was at least 0.0398 µM.
As to `Cc1ccc(C(=O)NC(C)C)cc1-c1nc(N(C)CCN(C)C)nc2c1ccc(=O)n2-c1c(F)cccc1F` [Example 100, 3-{8-(2,6-difluorophenyl)-2-[[2-(dimethylamino)ethyl](methyl)amino]-7-oxo-7,8-dihydropyrido[2,3-d]pyrimidin-4-yl}-4-methyl-N-(1-methylethyl)benzamide], the pIC50 in data set [3] was below 6.00.
As to `CCCNC(=O)c1ccc(C)c(-c2nc(N(C)CCCN(C)C)nc3c2ccc(=O)n3-c2c(F)cccc2F)c1` [Example 104, 3-{8-(2,6-difluorophenyl)-2-[[3-(dimethylamino)propyl](methyl)amino]-7-oxo-7,8-dihydropyrido[2,3-d]pyrimidin-4-yl}-4-methyl-N-propylbenzamide], the melting point was 104 to 109 °C. Moreover, the inhibition of neutrophilia entry in data set [5] is on record as “statistically significant inhibition”.
In the same order, the values of `CCCNC(=O)c1ccc(C)c(-c2nc(NCCN(C)C)nc3c2ccc(=O)n3-c2c(F)cccc2F)c1` [Example 105, 3-(8-(2,6-difluorophenyl)-2-{[2-(dimethylamino)ethyl]amino}-7-oxo-7,8-dihydropyrido[2,3-d]pyrimidin-4-yl)-4-methyl-N-propylbenzamide] are 139 to 142 °C and “statistically significant inhibition”.
On to `Cc1ccc(C(=O)Nc2ccc(F)cc2)cc1-c1nc(N(C)CCCN(C)C)nc2c1ccc(=O)n2-c1c(F)cccc1F` [Example 115, 3-{8-(2,6-difluorophenyl)-2-[[3-(dimethylamino)propyl](methyl)amino]-7-oxo-7,8-dihydropyrido[2,3-d]pyrimidin-4-yl}-N-(4-fluorophenyl)-4-methylbenzamide], for which, on Recombinant human p38α [4], the IC50 was at least 0.0398 µM. In addition, the inhibition of neutrophilia entry in data set [5] is “statistically nonsignificant inhibition”.
Take `CCN(CC)CCCNc1nc(-c2ccc(C(=O)O)cc2)c2ccc(=O)n(-c3c(F)cccc3F)c2n1` [Example 188(a), 4-[2-{[3-(diethylamino)propyl]-amino}-8-(2,6-difluorophenyl)-7-oxo-7,8-dihydropyrido[2,3-d]pyrimidin-4-yl]benzoic acid]: the IC50 on Recombinant human p38α [4] was above 15.8 µM. Besides, the pIC50 was at most 4.80 on Recombinant human p38α [4] (no IC50 at a concentration of less than 16 uM, read-out: IC50, TR-FRET p38α kinase assay) and below 7.00 in data set [2].
